# Laboratory results as given in patent publication US20190224260A1, “Metabolic Syndrome Inhibitor” (J-OIL MILLS, INC., priority 2016, published 2019).
# Tested on: rat primary visceral fat cells
# Assay: Cell test: fat droplet area (Oil Red O staining) in visceral fat cells
# Assay type: cell-based
# Details: test solution in DMSO diluted 1000-fold with medium; cultured 2+2 days; vs control group (DMSO); FIG. 15, p 0.01 or less
# Experimental: 100 μL of dimethylsulfoxide (DMSO) was added to 4.147 mg of unsaponifiable matter, or 259.65 μL of dimethylsulfoxide (DMSO) was added to 1.0716 mg of the avenasterol fraction, and which was sonicated for 1 minute to obtain a test solution. The test solution of the unsaponifiable matter (avenasterol concentration: 1.41 mg/ml) was referred to as an unsaponifiable matter group, and the test solution of the avenasterol (avenasterol concentration: 3.60 mg/ml) was referred to as an avenasterol fraction group. Furthermore, a DMSO without the unsaponifiable matter nor the avenasterol fraction (control group) was prepared. Each test solution in each group was diluted 1000-fold with a medium described in the following “Cell test”, and sonicated for 1 minute to obtain a medium with the test solution. […]
# The medium was removed, and the inside of the well was washed with 0.5 mL of phosphate buffered saline (PBS). […] The cells were microscopically observed at a magnification of 200 times, and visceral fat cells with stained fat droplets were recorded as images on a recording device of a computer.
# Area values of the lipid droplets stained with the Oil Red O on the above-described images were measured using the image processing software ImageJ (1.48 v) (obtained from https://imagej.nih.gov/ij/). The cell test was carried out three times, and four images were recorded in each group for each cell test. […]
substance,measurement,value
Avenasterol,fat accumulation in the fat cell (relative area value of fat droplets),significantly inhibited
